Results published in patent US5041567A, “Antibacterial monic acid derivatives” (Beecham Group plc, priority 1982, dated 1991).
≈ marks a conversion by molar mass, not a printed value. Read-outs that look alike come from different tables or passages of the source.

Columns and labels:
[1] = test system: M. suipneumoniae JF 435; assay: MIC against mycoplasma in vitro; type: cell-based; settings: Mesomycoplasma hyopneumoniae, JF435, 144 h; M. suipneumoniae JF 435; 6 days, 37° C.; read-out: MIC
[2] = test system: M. suipneumoniae HK(2); assay: MIC against mycoplasma in vitro; type: cell-based; settings: Mesomycoplasma hyopneumoniae, 144 h; M. suipneumoniae HK(2); 6 days, 37° C.; read-out: MIC
[3] = test system: M. suipneumoniae J2206/183^b; assay: MIC against mycoplasma in vitro; type: cell-based; settings: Mesomycoplasma hyopneumoniae, 144 h; M. suipneumoniae J2206/183^b; 6 days, 37° C.; read-out: MIC
[4] = test system: M. suipneumoniae MS 16; assay: MIC against mycoplasma in vitro; type: cell-based; settings: Mesomycoplasma hyopneumoniae, MS16, 144 h; M. suipneumoniae MS 16; 6 days, 37° C.; read-out: MIC
[5] = test system: M. suipneumoniae LABER; assay: MIC against mycoplasma in vitro; type: cell-based; settings: Mesomycoplasma hyopneumoniae, 144 h; M. suipneumoniae LABER; 6 days, 37° C.; read-out: MIC
[6] = test system: M. suipneumoniae TAM 6N; assay: MIC against mycoplasma in vitro; type: cell-based; settings: Mesomycoplasma hyopneumoniae, TAM6N, 144 h; M. suipneumoniae TAM 6N; 6 days, 37° C.; read-out: MIC
[7] = test system: M. suipneumoniae ATCC 25095; assay: MIC against mycoplasma in vitro; type: cell-based; settings: Mesomycoplasma hyopneumoniae, ATCC25095, 144 h; M. suipneumoniae ATCC 25095; 6 days, 37° C.; read-out: MIC
[8] = test system: M. suipneumoniae NCTC 10110; assay: MIC against mycoplasma in vitro; type: cell-based; settings: Mesomycoplasma hyopneumoniae, NCTC10110, 144 h; M. suipneumoniae NCTC 10110; 6 days, 37° C.; read-out: MIC
[9] = test system: M. hyorhinis ATCC 23234; assay: MIC against mycoplasma in vitro; type: cell-based; settings: Mesomycoplasma hyorhinis, ATCC23234, 144 h; M. hyorhinis ATCC 23234; 6 days, 37° C.; read-out: MIC
[10] = test system: M. hyorhinis ATCC 25021; assay: MIC against mycoplasma in vitro; type: cell-based; settings: Mesomycoplasma hyorhinis, ATCC25021, 144 h; M. hyorhinis ATCC 25021; 6 days, 37° C.; read-out: MIC
[11] = test system: M. hyosynoviae ATCC 25591; assay: MIC against mycoplasma in vitro; type: cell-based; settings: 144 h; M. hyosynoviae ATCC 25591; 6 days, 37° C.; read-out: MIC
[12] = test system: M. dispar NCTC 10125; assay: MIC against mycoplasma in vitro; type: cell-based; settings: 144 h
[13] = test system: M. pneumoniae ATCC 15492; assay: MIC against mycoplasma in vitro; type: cell-based; settings: Mycoplasmoides pneumoniae, ATCC15492, 144 h; M. pneumoniae ATCC 15492; 6 days, 37° C.; read-out: MIC
[14] = test system: E. coli ESS; assay: MIC against human bacteria in vitro; type: cell-based; settings: Escherichia coli
[15] = test system: P. mirabilis 889; assay: MIC against human bacteria in vitro; type: cell-based; settings: Proteus mirabilis, 889, 18 h
[16] = test system: K. aerogenes A; assay: MIC against human bacteria in vitro; type: cell-based; settings: Klebsiella aerogenes; K. aerogenes A; 5% chocolated horse blood agar, 18 hours; read-out: MIC
[17] = test system: Pasteurella multocida 1633; assay: MIC against human bacteria in vitro; type: cell-based; settings: Pasteurella multocida 1633; 5% chocolated horse blood agar, 18 hours; read-out: MIC
[18] = test system: Neisseria catarrhalis 1502; assay: MIC against human bacteria in vitro; type: cell-based; settings: Neisseria catarrhalis 1502; 5% chocolated horse blood agar, 18 hours; read-out: MIC
[19] = test system: Bacillus subtilis 6633; assay: MIC against human bacteria in vitro; type: cell-based; settings: Bacillus subtilis 6633; 5% chocolated horse blood agar, 18 hours; read-out: MIC
[20] = test system: Sarcina lutea 8340; assay: MIC against human bacteria in vitro; type: cell-based; settings: Micrococcus luteus; Sarcina lutea 8340; 5% chocolated horse blood agar, 18 hours; read-out: MIC
[21] = test system: Staph. aureus Oxford; assay: MIC against human bacteria in vitro; type: cell-based; settings: Staphylococcus aureus; Staph. aureus Oxford; 5% chocolated horse blood agar, 18 hours; read-out: MIC
[22] = test system: Staph. aureus Russell; assay: MIC against human bacteria in vitro; type: cell-based; settings: Staphylococcus aureus; Staph. aureus Russell; 5% chocolated horse blood agar, 18 hours; read-out: MIC
[23] = test system: Staph. aureus W2827; assay: MIC against human bacteria in vitro; type: cell-based; settings: Staphylococcus aureus; Staph. aureus W2827; 5% chocolated horse blood agar, 18 hours; read-out: MIC
[24] = test system: Strep. faecalis I; assay: MIC against human bacteria in vitro; type: cell-based; settings: Enterococcus faecalis; Strep. faecalis I; 5% chocolated horse blood agar, 18 hours; read-out: MIC
[25] = test system: Strep. pyogenes R80/421-A; assay: MIC against human bacteria in vitro; type: cell-based; settings: Streptococcus pyogenes; Strep. pyogenes R80/421-A; 5% chocolated horse blood agar, 18 hours; read-out: MIC
[26] = test system: Strep. spp. 64/848-C; assay: MIC against human bacteria in vitro; type: cell-based; settings: Strep. spp. 64/848-C; 5% chocolated horse blood agar, 18 hours; read-out: MIC
[27] = test system: Strep. pneumoniae CN33; assay: MIC against human bacteria in vitro; type: cell-based; settings: Streptococcus pneumoniae
[28] = test system: E. coli E1; assay: MIC against veterinary bacteria in vitro; settings: Escherichia coli, E1, 18 h
Method: (§1) The activity of the compounds of the Examples against various veterinarily important bacteria, was assayed in vitro using two-fold serial dilutions in Diagnostic Sensitivity Test Agar inoculated with 10^4 organisms.

[29] = test system: S. typhimurium S18; assay: MIC against veterinary bacteria in vitro; settings: Salmonella enterica, TYPHIMURIUM, 18 h
Method: as §1

[30] = test system: Bord. bronchiseptica B08; assay: MIC against veterinary bacteria in vitro; settings: Bordetella bronchiseptica, B08, 18 h
Method: as §1

[31] = test system: Past. multocida PA2; assay: MIC against veterinary bacteria in vitro; settings: Pasteurella multocida, PA2, 18 h
Method: as §1

[32] = test system: Staph. aureus B4 (pen. resistant); assay: MIC against veterinary bacteria in vitro; settings: Staphylococcus aureus, 18 h
Method: as §1

[33] = test system: Staph. aureus 152 (pen. sens); assay: MIC against veterinary bacteria in vitro; settings: Staphylococcus aureus, 18 h
Method: as §1

[34] = test system: Strep. suis (group D) SPS11; assay: MIC against veterinary bacteria in vitro; settings: Streptococcus suis, 18 h
Method: as §1

[35] = test system: Strep. uberis SPU1; assay: MIC against veterinary bacteria in vitro; settings: Streptococcus uberis, SPU1, 18 h
Method: as §1

Structure (SMILES) | MIC [1] | MIC [2] | MIC [3] | MIC [4] | MIC [5] | MIC [6] | MIC [7] | MIC [8] | MIC [9] | MIC [10] | MIC [11] | MIC [13] | MIC [15] | MIC [16] | MIC [17] | MIC [18] | MIC [19] | MIC [20] | MIC [21] | MIC [22] | further results
C/C(=C\c1ncc(-c2ccccc2)s1)C[C@@H]1OC[C@H](C[C@@H]2O[C@H]2[C@@H](C)[C@H](C)O)[C@@H](O)[C@H]1O [Example 29, 2-(1-Normon-2-yl)-5-phenylthiazole A] | > 10 mg/L | > 10 mg/L | > 10 mg/L | 10 mg/L (≈ 21.8 µM) | 10 mg/L (≈ 21.8 µM) | > 10 mg/L | 10 mg/L (≈ 21.8 µM) | > 10 mg/L | > 10 mg/L | 10 mg/L (≈ 21.8 µM) | > 10 mg/L | > 10 mg/L | > 100 mg/L | > 100 mg/L | > 100 mg/L | 50 mg/L (≈ 109 µM) | 50 mg/L (≈ 109 µM) | > 100 mg/L | 25 mg/L (≈ 54.4 µM) | 100 mg/L (≈ 218 µM) | MIC [12]: 2.5 mg/L (≈ 5.44 µM); MIC ([14]; 18 h): > 100 mg/L; MIC [23]: 50 mg/L (≈ 109 µM); MIC [24]: > 100 mg/L; MIC [25]: 50 mg/L (≈ 109 µM); MIC [26]: 25 mg/L (≈ 54.4 µM); MIC ([27]; Strep. pneumoniae CN33, 5% chocolated horse blood agar, 18 hours, read-out: MIC): 50 mg/L (≈ 109 µM); MIC [28]: > 80 mg/L; MIC [29]: > 80 mg/L; MIC [30]: > 80 mg/L; MIC [31]: 80 mg/L (≈ 174 µM); MIC [32]: 10 mg/L (≈ 21.8 µM); MIC [33]: 10 mg/L (≈ 21.8 µM); MIC [34]: > 80 mg/L; MIC [35]: 5 mg/L (≈ 10.9 µM)
C/C(=C\c1nc(-c2ccccc2)c(-c2ccccc2)o1)C[C@@H]1OC[C@H](C[C@@H]2O[C@H]2[C@@H](C)[C@H](C)O)[C@@H](O)[C@H]1O [Example 41, 4,5-Diphenyl-2-(1-normon-2-yl)oxazole A] | > 10 mg/L | > 10 mg/L | > 10 mg/L | > 10 mg/L | > 10 mg/L | > 10 mg/L | > 10 mg/L | > 10 mg/L | > 10 mg/L | > 10 mg/L | > 10 mg/L | > 10 mg/L | > 100 mg/L | > 100 mg/L | 25 mg/L (≈ 48.1 µM) | 25 mg/L (≈ 48.1 µM) | 100 mg/L (≈ 192 µM) | > 100 mg/L | 100 mg/L (≈ 192 µM) | > 100 mg/L | MIC ([12]; M. dispar NCTC 10125, 6 days, 37° C., read-out: MIC): > 10 mg/L; MIC ([14]; E. coli ESS, 5% chocolated horse blood agar, 18 hours, read-out: MIC): 50 mg/L (≈ 96.2 µM); MIC [23]: > 100 mg/L; MIC [24]: > 100 mg/L; MIC [25]: > 100 mg/L; MIC [26]: 100 mg/L (≈ 192 µM); MIC ([27]; CN33, 18 h): > 100 mg/L; MIC [28]: > 80 mg/L; MIC [29]: > 80 mg/L; MIC [30]: > 80 mg/L; MIC [31]: 20 mg/L (≈ 38.5 µM); MIC [32]: 40 mg/L (≈ 77 µM); MIC [33]: 40 mg/L (≈ 77 µM); MIC [34]: > 80 mg/L; MIC [35]: 10 mg/L (≈ 19.2 µM)
